In ChEMBL document CHEMBL1641539 (Bioorg Med Chem Lett, 2011):

How the values were obtained:
[1] = target: Serine/threonine-protein kinase Chk2 (Homo sapiens) (UniProt O96017); experiment: Inhibition of human CHK2 at 10 uM after 60 mins by TR-FRET assay; values are per cent of control
[2] = target: Serine/threonine-protein kinase Nek2 (Homo sapiens) (UniProt P51955); experiment: Inhibition of human NEK2 at 10 uM after 60 mins by TR-FRET assay; values are per cent of control
[3] = target: Tyrosine-protein kinase receptor UFO (Homo sapiens) (UniProt P30530); experiment: Inhibition of human Axl at 10 uM after 60 mins by TR-FRET assay; values are per cent of control
Chain of Tyrosine-protein kinase receptor UFO (Homo sapiens) (P30530 whole entry): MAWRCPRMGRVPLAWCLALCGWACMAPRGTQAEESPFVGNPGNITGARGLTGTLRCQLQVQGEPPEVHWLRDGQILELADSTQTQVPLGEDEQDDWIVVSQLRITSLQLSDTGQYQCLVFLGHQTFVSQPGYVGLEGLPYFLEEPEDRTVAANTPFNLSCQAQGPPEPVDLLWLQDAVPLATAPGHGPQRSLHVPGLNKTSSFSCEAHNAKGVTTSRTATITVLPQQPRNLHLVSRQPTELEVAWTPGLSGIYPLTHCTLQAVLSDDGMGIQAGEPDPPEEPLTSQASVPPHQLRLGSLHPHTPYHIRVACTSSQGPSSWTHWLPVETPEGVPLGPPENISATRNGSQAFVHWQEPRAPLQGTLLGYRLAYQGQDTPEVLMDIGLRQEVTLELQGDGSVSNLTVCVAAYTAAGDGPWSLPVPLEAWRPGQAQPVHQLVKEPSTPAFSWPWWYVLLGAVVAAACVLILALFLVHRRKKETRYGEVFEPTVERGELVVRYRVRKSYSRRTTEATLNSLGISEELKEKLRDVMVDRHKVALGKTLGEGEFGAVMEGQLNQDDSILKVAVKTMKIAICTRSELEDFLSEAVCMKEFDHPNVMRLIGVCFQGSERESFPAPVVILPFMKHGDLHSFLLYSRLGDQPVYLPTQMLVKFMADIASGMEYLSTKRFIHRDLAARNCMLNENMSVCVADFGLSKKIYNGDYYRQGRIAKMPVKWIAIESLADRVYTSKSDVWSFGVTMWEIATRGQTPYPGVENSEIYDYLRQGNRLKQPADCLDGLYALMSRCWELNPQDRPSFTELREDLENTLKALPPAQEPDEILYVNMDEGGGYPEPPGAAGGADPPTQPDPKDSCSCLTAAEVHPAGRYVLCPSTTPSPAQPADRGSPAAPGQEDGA

[4] = target: Dual specificity protein kinase CLK2 (Homo sapiens) (UniProt P49760); experiment: Inhibition of human CLK2 at 10 uM after 60 mins by TR-FRET assay; values are per cent of control
[5] = target: BDNF/NT-3 growth factors receptor (Homo sapiens) (UniProt Q16620); experiment: Inhibition of human TrkB at 10 uM after 60 mins by TR-FRET assay; values are per cent of control
[6] = test system: Angiopoietin-1 receptor (Homo sapiens), Q02763 [Y897S]; experiment: Inhibition of human Tie2 Y897S mutant at 10 uM after 60 mins by TR-FRET assay; values are per cent of control
[7] = target: Rho-associated protein kinase 2 (Homo sapiens) (UniProt O75116); experiment: Inhibition of human ROCK-2 at 10 uM after 60 mins by TR-FRET assay; values are per cent of control
[8] = target: SRSF protein kinase 2 (Homo sapiens) (UniProt P78362); experiment: Inhibition of human SRPK2 at 10 uM after 60 mins by TR-FRET assay; values are per cent of control
Chain of SRSF protein kinase 2 (Homo sapiens) (P78362 whole entry, looked up, canonical isoform): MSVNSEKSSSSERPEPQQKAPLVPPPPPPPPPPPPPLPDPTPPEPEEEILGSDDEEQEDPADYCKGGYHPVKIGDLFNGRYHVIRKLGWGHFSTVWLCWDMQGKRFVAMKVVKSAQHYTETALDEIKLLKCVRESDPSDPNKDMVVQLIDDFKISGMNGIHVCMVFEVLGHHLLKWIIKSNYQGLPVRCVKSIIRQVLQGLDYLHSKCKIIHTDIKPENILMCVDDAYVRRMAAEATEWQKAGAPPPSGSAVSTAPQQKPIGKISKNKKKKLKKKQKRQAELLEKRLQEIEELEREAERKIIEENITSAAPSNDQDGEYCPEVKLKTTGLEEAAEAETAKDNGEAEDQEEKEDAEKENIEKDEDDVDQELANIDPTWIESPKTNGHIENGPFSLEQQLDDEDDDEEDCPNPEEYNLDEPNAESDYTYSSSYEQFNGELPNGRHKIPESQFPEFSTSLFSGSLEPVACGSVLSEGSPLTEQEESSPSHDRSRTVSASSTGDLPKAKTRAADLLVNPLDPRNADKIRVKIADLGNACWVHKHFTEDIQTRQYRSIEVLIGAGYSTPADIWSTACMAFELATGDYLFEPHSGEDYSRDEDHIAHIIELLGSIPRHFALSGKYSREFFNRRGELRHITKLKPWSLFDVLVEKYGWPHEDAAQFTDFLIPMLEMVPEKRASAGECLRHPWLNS

[9] = target: Phosphorylase b kinase gamma catalytic chain, liver/testis isoform (Homo sapiens) (UniProt P15735); experiment: Inhibition of human PhKgamma2 at 10 uM after 60 mins by TR-FRET assay; values are per cent of control
[10] = target: Serine/threonine-protein kinase Sgk3 (Homo sapiens) (UniProt Q96BR1); experiment: Inhibition of human SGK3 at 10 uM after 60 mins by TR-FRET assay; values are per cent of control
[11] = organism: Rattus norvegicus; experiment: Inhibition of rat AMPK at 10 uM after 60 mins by TR-FRET assay; values are per cent of control
[12] = target: Rho-associated protein kinase 2 (Rattus norvegicus) (UniProt Q62868); experiment: Inhibition of rat ROCK-2 at 10 uM after 60 mins by TR-FRET assay; values are per cent of control
[13] = target: Rho-associated protein kinase 1 (Homo sapiens) (UniProt Q13464); experiment: Inhibition of human ROCK-1 at 10 uM after 60 mins by TR-FRET assay; values are per cent of control
[14] = test system: Mast/stem cell growth factor receptor Kit (Homo sapiens), P10721 [D816H]; experiment: Inhibition of human c-Kit D816H mutant at 10 uM after 60 mins by TR-FRET assay; values are per cent of control
[15] = target: Epidermal growth factor receptor (Homo sapiens) (UniProt P00533); experiment: Inhibition of human EGFR at 10 uM after 60 mins by TR-FRET assay; conditions: values are per cent of control
[16] = target: Platelet-derived growth factor receptor beta (Homo sapiens) (UniProt P09619); experiment: Inhibition of human PDGFRbeta at 10 uM after 60 mins by TR-FRET assay; values are per cent of control
[17] = target: Protein kinase C gamma type (Homo sapiens) (UniProt P05129); experiment: Inhibition of human PKCgamma at 10 uM after 60 mins by TR-FRET assay; values are per cent of control
[18] = target: Death-associated protein kinase 3 (Homo sapiens) (UniProt O43293); experiment: Inhibition of human ZIPK at 10 uM after 60 mins by TR-FRET assay; values are per cent of control
Chain of Death-associated protein kinase 3 (Homo sapiens) (O43293 whole entry, looked up): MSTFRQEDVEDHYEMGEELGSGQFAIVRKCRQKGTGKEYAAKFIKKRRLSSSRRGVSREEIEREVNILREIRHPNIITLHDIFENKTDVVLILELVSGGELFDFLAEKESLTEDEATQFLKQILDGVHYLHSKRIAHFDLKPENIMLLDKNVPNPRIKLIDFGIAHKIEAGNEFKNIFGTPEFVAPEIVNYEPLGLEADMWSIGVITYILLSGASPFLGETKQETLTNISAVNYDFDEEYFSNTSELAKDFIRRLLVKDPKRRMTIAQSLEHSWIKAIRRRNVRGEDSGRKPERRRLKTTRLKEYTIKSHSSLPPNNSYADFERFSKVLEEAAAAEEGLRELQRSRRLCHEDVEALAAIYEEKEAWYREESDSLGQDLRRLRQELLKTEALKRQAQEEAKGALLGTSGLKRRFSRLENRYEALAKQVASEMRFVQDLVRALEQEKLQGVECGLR

[19] = target: Serine/threonine-protein kinase 33 (Homo sapiens) (UniProt Q9BYT3); experiment: Inhibition of human STK33 at 10 uM after 60 mins by TR-FRET assay; values are per cent of control
[20] = target: Hepatocyte growth factor receptor (Homo sapiens) (UniProt P08581); experiment: Inhibition of human Met at 10 uM after 60 mins by TR-FRET assay; conditions: values are per cent of control
[21] = target: Calcium/calmodulin-dependent protein kinase type IV (Homo sapiens) (UniProt Q16566); experiment: Inhibition of human CaMK4 at 10 uM after 60 mins by TR-FRET assay; values are per cent of control
[22] = target: Serine/threonine-protein kinase BRSK2 (Homo sapiens) (UniProt Q8IWQ3); experiment: Inhibition of human BrSK2 at 10 uM after 60 mins by TR-FRET assay; values are per cent of control
[23] = target: Inhibitor of nuclear factor kappa-B kinase subunit alpha (Homo sapiens) (UniProt O15111); experiment: Inhibition of human IKKalpha at 10 uM after 60 mins by TR-FRET assay; values are per cent of control
Chain of Inhibitor of nuclear factor kappa-B kinase subunit alpha (Homo sapiens) (O15111 whole entry): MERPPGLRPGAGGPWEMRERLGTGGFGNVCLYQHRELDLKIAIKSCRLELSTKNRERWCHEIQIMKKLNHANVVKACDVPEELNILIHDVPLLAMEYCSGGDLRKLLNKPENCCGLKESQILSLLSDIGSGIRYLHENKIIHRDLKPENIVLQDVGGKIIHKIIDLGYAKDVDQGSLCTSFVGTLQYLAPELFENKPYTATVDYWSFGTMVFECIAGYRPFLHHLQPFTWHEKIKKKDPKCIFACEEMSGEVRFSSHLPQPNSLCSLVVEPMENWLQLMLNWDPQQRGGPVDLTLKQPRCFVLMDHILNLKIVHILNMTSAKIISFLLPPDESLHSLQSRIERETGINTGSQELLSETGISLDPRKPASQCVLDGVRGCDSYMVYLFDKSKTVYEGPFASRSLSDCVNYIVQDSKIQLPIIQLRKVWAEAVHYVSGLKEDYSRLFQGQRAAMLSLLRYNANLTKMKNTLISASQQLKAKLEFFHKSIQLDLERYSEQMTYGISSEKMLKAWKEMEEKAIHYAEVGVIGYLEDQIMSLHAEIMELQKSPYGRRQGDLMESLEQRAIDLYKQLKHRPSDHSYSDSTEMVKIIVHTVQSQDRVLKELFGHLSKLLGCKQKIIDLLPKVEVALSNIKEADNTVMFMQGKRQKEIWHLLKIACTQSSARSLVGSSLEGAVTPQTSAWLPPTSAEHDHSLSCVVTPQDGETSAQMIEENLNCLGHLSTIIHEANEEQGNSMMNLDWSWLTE

[24] = target: Serine/threonine-protein kinase TBK1 (Homo sapiens) (UniProt Q9UHD2); experiment: Inhibition of human TBK1 at 10 uM after 60 mins by TR-FRET assay; values are per cent of control
[25] = test system: Epidermal growth factor receptor (Homo sapiens), P00533 [T790M]; experiment: Inhibition of human EGFR T790M mutant at 10 uM after 60 mins by TR-FRET assay; type: protein assay; conditions: values are per cent of control
[26] = target: Fibroblast growth factor receptor 2 (Homo sapiens) (UniProt P21802); experiment: Inhibition of human FGFR2 at 10 uM after 60 mins by TR-FRET assay; values are per cent of control
[27] = target: Activated CDC42 kinase 1 (Homo sapiens) (UniProt Q07912); experiment: Inhibition of human ACK1 at 10 uM after 60 mins by TR-FRET assay; values are per cent of control
[28] = target: Tyrosine-protein kinase ABL1 (Homo sapiens) (UniProt P00519); experiment: Inhibition of human Abl at 10 uM after 60 mins by TR-FRET assay; values are per cent of control
Chain of Tyrosine-protein kinase ABL1 (Homo sapiens) (P00519 whole entry): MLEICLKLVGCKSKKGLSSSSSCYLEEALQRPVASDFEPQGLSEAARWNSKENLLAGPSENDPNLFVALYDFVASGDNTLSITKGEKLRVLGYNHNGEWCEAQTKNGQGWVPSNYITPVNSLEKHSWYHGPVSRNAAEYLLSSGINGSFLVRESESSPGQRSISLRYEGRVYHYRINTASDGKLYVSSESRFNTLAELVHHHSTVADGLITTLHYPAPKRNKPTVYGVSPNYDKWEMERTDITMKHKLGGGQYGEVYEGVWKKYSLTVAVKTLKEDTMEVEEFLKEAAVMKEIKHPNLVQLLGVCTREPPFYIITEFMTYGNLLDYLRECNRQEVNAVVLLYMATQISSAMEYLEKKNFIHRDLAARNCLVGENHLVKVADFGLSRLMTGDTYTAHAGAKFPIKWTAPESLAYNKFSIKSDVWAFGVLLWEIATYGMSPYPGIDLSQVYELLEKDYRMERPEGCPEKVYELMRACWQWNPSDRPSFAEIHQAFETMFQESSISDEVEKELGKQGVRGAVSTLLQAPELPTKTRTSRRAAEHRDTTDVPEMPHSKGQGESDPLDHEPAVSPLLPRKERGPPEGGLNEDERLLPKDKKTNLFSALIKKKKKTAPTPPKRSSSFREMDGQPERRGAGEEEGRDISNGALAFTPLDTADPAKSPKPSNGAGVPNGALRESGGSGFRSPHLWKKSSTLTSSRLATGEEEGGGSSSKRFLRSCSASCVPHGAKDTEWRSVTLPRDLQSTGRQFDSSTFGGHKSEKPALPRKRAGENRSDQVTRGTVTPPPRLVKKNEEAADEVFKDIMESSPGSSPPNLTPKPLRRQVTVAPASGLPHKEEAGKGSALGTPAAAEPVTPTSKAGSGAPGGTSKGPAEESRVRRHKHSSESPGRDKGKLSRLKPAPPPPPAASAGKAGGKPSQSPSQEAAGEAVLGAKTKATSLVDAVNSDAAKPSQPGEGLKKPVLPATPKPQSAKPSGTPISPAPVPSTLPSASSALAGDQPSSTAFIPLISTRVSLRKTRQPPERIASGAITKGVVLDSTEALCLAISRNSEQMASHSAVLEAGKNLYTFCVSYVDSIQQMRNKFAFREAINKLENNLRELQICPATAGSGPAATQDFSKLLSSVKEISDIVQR

Chain of Serine/threonine-protein kinase Chk2 (Homo sapiens) (O96017 whole entry): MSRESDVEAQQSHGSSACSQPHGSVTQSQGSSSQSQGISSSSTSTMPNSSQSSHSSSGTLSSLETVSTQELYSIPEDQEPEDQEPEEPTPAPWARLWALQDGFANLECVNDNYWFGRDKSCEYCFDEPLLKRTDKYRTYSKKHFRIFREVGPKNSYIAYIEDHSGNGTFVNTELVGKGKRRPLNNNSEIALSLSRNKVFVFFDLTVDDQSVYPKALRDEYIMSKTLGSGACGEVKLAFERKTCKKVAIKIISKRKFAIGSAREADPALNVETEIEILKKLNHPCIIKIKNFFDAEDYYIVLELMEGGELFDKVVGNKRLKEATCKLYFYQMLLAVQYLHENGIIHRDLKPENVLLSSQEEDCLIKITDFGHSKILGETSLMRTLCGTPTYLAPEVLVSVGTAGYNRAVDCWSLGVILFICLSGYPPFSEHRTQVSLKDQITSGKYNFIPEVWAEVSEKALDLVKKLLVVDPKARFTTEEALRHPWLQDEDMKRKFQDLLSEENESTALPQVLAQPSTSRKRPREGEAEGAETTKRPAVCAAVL
Chain of Serine/threonine-protein kinase Nek2 (Homo sapiens) (P51955 whole entry): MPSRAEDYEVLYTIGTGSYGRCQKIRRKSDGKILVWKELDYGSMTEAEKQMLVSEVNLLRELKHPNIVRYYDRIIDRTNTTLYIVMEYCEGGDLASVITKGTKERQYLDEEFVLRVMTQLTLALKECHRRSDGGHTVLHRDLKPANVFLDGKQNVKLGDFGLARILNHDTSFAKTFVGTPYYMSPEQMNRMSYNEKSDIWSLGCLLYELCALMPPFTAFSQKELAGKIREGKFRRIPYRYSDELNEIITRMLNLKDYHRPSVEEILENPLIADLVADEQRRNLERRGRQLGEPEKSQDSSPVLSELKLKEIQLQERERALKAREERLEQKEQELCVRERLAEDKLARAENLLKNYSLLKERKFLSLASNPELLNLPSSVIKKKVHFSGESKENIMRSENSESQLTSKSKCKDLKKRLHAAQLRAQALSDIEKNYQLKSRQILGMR

`S=c1[nH]nc(-c2ccncc2)n1-c1ccc2ccccc2c1` was tested, and the residual activity [1] was 116%, the residual activity [2] was 110% and the residual activity [3] was 110%. It also gave a residual activity [4] of 104%, a residual activity [5] of 114% and a residual activity [6] of 92%. The residual activity [7] was 101%, the residual activity [8] was 110% and the residual activity [9] was 109%. For the same compound, the residual activity [10] was 102%, the residual activity [11] was 108% and the residual activity [12] was 101%. The residual activity [13] was 110%, the residual activity [14] was 114% and the residual activity [15] was 90%. For the same compound, the residual activity [16] was 99%, the residual activity [17] was 102% and the residual activity [18] was 103%. For the same compound, the residual activity [19] was 107%, the residual activity [20] was 108% and the residual activity [21] was 112%. It also gave a residual activity [22] of 103%, a residual activity [23] of 100% and a residual activity [24] of 108%. It also gave a residual activity [25] of 98%, a residual activity [26] of 92% and a residual activity [27] of 103%. For the same compound, the residual activity [28] was 113%.
